Data from patent US11883387B2, “PqsR inverse agonists” (HELMHOLTZ-ZENTRUM FÜR INFEKTIONSFORSCHUNG GMBH, priority 2018, dated 2024).

How the values were obtained:
PqsR = PqsR (Pseudomonas aeruginosa, UniProt Q9I4X0); assay: E. coli based β-galactosidase reporter gene assay (PqsR inverse agonistic activity); assay type: cell-based; parameters: expressed in transfected cells; host or cells: Escherichia coli DH5α
Description: Inhibition of pqsR-dependent gene expression of test compounds was determined in an E. coli based β-galactosidase reporter gene assay.[19] Escherichia coli DH5α was transfected with pEAL08-2 plasmid encoding pqsR under control of promoter tac and β-galactosidase reporter gene lacZ under control of promoter pqsA. Antagonistic effects of compounds were evaluated in the presence of/in competition to 50 nM PQS. A positive control was used to ensure the reliability of individual assays. First, PQS was diluted in methanol and added to the wells of a glass coated 96-deep-well plate, and the solvent was evaporated. Then, compounds were added in 5 μL DMSO to final concentrations of 0.001-10 μM. Overnight cultures of E. coli DH5a×pEAL08-2 were diluted 1:100 in LB medium with ampicillin (50 μg/ml) and incubated at 37° C. with shaking until it reached an OD600 of 0.2. Finally, 995 μL of culture was added to each well and the p-galactosidase activity was determined by ortho-nitrophenyl-p-galactoside conversion in permeabilized cells after a 2.5 h incubation period (37° C., 180 rpm). OD600, OD420, and OD550 were measured using POLARstar Omega (BMG Labtech, Ortenberg, Germany), and the activity was expressed as ratio of the slope of β-galactosidase activity between basal control (no PQS) and solvent control. IC50 values of antagonists were determined by variation of the concentration of the test compounds.

[1] = system: P. aeruginosa pyocyanin production; assay: Pyocyanin assay; assay type: cell-based, P. aeruginosa PA14; settings: Pseudomonas aeruginosa, PA14, 16 h, read-out: IC50-value towards pyocyanin production, PA14 in PPGAS medium, 16 h
Description: Inhibition of P. aeruginosa pyocyanin production by compounds was determined photometrically as described before.[20] In short, an overnight culture of PA14 in PPGAS medium was washed, diluted in medium to a start OD600 of 0.02, and incubated for 16 h (37° C., 200 rpm, relative humidity 75%) in the presence of test compounds. Then, cultures were extracted with chloroform and re-extracted with 0.2 M HCl. Protonated red colored pyocyanin was determined by measuring OD520 and normalizing to OD600.

Sequence of PqsR (Q9I4X0 whole entry): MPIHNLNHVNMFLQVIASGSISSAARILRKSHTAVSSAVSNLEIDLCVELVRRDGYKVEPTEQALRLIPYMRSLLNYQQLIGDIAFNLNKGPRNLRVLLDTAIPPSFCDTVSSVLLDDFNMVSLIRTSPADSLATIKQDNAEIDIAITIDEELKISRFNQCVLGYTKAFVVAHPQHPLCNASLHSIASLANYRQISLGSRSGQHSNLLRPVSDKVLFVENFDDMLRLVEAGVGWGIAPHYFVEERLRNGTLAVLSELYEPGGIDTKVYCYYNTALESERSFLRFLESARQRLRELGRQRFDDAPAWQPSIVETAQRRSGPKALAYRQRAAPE

SMILES	IC50 (PqsR)	IC50 [1]
FC(F)(F)c1cc(NCc2cn(-c3ccc(Cl)c(Cl)c3)nn2)ccn1 [Compound 005, N-((1-(3,4-Dichlorophenyl)-1H-1,2,3-triazol-4-yl)methyl)-2-(trifluoromethyl)pyridin-4-amine]	≤ 50 nM	251 to 1000 nM
COc1ccc(-n2cc(CNc3ccnc(C(F)(F)F)c3)nn2)cc1 [Compound 006, N-((1-(4-Methoxyphenyl)-1H-1,2,3-triazol-4-yl)methyl)-2-(trifluoromethyl)pyridin-4-amine]	51 to 250 nM	1000 to 5000 nM
CSc1ccc(-n2cc(CNc3ccnc(C(F)(F)F)c3)nn2)cc1 [Compound 016, N-((1-(4-(methylthio)phenyl)-1H-1,2,3-triazol-4-yl)methyl)-2-(trifluoromethyl)pyridin-4-amine]	≤ 50 nM	1000 to 5000 nM
FC(F)(F)c1cc(NCc2cn(-c3ccc(Nc4ccccc4)cc3)nn2)ccn1 [Compound 018, N-((1-(4-(Phenylamino)phenyl)-1H-1,2,3-triazol-4-yl)methyl)-2-(trifluoromethyl)pyridin-4-amine]	≤ 50 nM	251 to 1000 nM
FC(F)(F)c1cncc(NCc2cn(-c3ccc(Oc4ccccc4)cc3)nn2)c1 [Compound 021, N-((1-(4-phenoxyphenyl)-1H-1,2,3-triazol-4-yl)methyl)-5-(trifluoromethyl)pyridin-3-amine]	≤ 50 nM	1000 to 5000 nM
FC(F)(F)c1cc(NCc2cn(-c3ccc(Cc4ccncc4)cc3)nn2)ccn1 [Compound 025, N-((1-(4-(Pyridin-4-ylmethyl)phenyl)-1H-1,2,3-triazol-4-yl)methyl)-2-(trifluoromethyl)pyridin-4-amine]	≤ 50 nM	251 to 1000 nM
COc1ccc(-n2cc(CNc3ccnc(C(F)(F)F)c3)nn2)cc1F [Compound 026, N-((1-(3-Fluoro-4-methoxyphenyl)-1H-1,2,3-triazol-4-yl)methyl)-2-(trifluoromethyl)pyridin-4amine]	≤ 50 nM	1000 to 5000 nM
Clc1cc(NCc2cn(-c3ccc(Oc4ccccc4)cc3)nn2)ccn1 [Compound 049, 2-Chloro-N-((1-(4-phenoxyphenyl)-1H-1,2,3-triazol-4-yl)methyl)pyridin-4-amine]	≤ 50 nM	251 to 1000 nM
N#Cc1cc(NCc2cn(-c3ccc(Oc4ccccc4)cc3)nn2)cc(C#N)n1 [Compound 052, 4-(((1-(4-Phenoxyphenyl)-1H-1,2,3-triazol-4-yl)methyl)amino)pyridine-2,6-dicarbonitrile]	≤ 50 nM	≤ 250 nM
FC(F)(F)c1cc(NCc2cn(-c3ccc(Oc4ccccc4)c(Cl)c3)nn2)ccn1 [Compound 053, N-((1-(3-Chloro-4-phenoxyphenyl)-1H-1,2,3-triazol-4-yl)methyl)-2-(trifluoromethyl)pyridin-4-amine]	≤ 50 nM	≤ 250 nM
CC(C)Oc1ccc(-c2ncc(CNc3cc(Cl)nc(C(F)(F)F)c3)cn2)cc1 [Compound 168, 2-chloro-N-((2-(4-isopropoxyphenyl)pyrimidin-5-yl)methyl)-6-(trifluoromethyl)pyridin-4-amine]	–	≤ 250 nM
O=[N+]([O-])c1cc(-c2ncc(CNc3cc(Cl)nc(C(F)(F)F)c3)cn2)ccc1Cl [Compound 169, 2-chloro-N-((2-(4-chloro-3-nitrophenyl)pyrimidin-5-yl)methyl)-6-(trifluoromethyl)pyridin-4-amine]	–	≤ 250 nM
Fc1cccc(Oc2ccc3[nH]c(CSc4ccnc(C(F)(F)F)c4)nc3c2)c1 [Compound 170, 5-(3-fluorophenoxy)-2-(((2-(trifluoromethyl)pyridin-4-yl)thio)methyl)-1H-benzo[d]imidazole]	–	≤ 250 nM
Nc1cc(SCc2nc3cc(Oc4cccc(F)c4)ccc3[nH]2)nc(C(F)(F)F)n1 [Compound 171, 6-(((5-(3-fluorophenoxy)-1H-benzo[d]imidazol-2-yl)methyl)thio)-2-(trifluoromethyl)pyrimidin-4-amine]	–	≤ 250 nM
